Test results reported in patent US20040192606A1, “Method of promoting angiogenesis” (priority 1995, published 2004).
Where two headings read alike, the source gives them in different places.

Columns and labels:
[1] = system: THP-1 cells; assay: VEGF protein secretion by THP-1 cells (ELISA of conditioned media); assay type: cell-based, human; conditions: for inhibition of relaxin-induced VEGF stimulation: PKA inhibitors used at or above their Ki doses, ELISA, data not shown; for VEGF induction: 17 nM (equivalent molar concentration to relaxin)
[2] = system: THP-1 cells; assay: cAMP levels in THP-1 cells; assay type: cell-based, human
[3] = system: VEGF transcripts in THP-1 cells; assay: PCR and Southern blot analysis of steady state VEGF mRNA in THP-1 cells; assay type: cell-based, human
[4] = system: THP-1 cells; assay: Other effects on THP-1 cells (morphology, thymidine uptake, metalloproteinase expression, nitric oxide production); assay type: cell-based, human
[5] = Serum concentration of relaxin in ongoing clinical trials; assay type: in vivo, human
Protocol: While human dosage levels for treating depression have yet to be optimized for relaxin, generally, a daily dose is from about […] of body weight per day, preferably about […] μg/kg, and most preferably about 12.0 to 100.0 μg/kg. Generally it is sought to obtain a serum concentration of relaxin approximating or greater than normal circulating levels in pregnancy, i.e., 1.0 ng/ml, such as 0.5 to 50 ng/ml, preferably 1.0 to 20 ng/ml. […] Thus, for administration to a 70 kg person, the dosage range would be about 7.0 μg to 3.5 mg per day, preferably about […] to 2.1 mg per day, and most preferably about […] per day. The amount of relaxin administered will, of course, be dependent on the subject and the severity of the affliction, the manner and schedule of administration and the judgment of the prescribing physician.

[6] = system: mouse dorsum (matrigel plug); assay: Murine matrigel subcutaneous insert vascularization assay; assay type: in vivo
Protocol: (§1) In vivo activity for angiogenesis is determined by the rabbit corneal injection protocol and by the matrigel subcutaneous insert vascularization protocol.
Matrigel (Collaborative Biomedical, Bedford, Mass.) is a reconstituted basement membrane complex containing primarily laminin and type IV collagen. It is isolated from the Engelbreth-Holm-Swarm (EHS) murine tumor. At room temperature, matrigel is liquid; but when injected subcutaneously into a mouse it reconstitutes as a gel.
Test substance is mixed with matrigel (1%v/v media in 1 cc matrigel) at room temperature and then injected subcutaneously into a mouse dorsum (5 month old female Swiss-Webster). After one week, the mouse is sacrificed and the gel plug(s) harvested. Samples are fixed in buffered formalin, paraffin embedded, sectioned (4 μ) and H&E stained. The samples are scored 1 (positive), 0.5 (indeterminate) or 0 (negative).

[7] = system: rabbit corneal stroma; assay: Rabbit corneal assay (neo-capillary growth toward implanted hydron disc); assay type: in vivo
Protocol: as §1
Test and control material is mixed with hydron into a 0.1 cc disc (resembling a small contact lens). The disc is implanted into a rabbit corneal stroma micro pocket using appropriate anesthesia for the procedure. After one week, neo-capillary growth toward the disc is measured and scored (0-4) utilizing a standard anatomic grading scale. A score of 0 means no growth. A score of 1 means capillaries (one or two) just entering the corneal stroma from the limbus toward the pocket. A score of 3 means vessels have grown to the base of the implant. A score of 4 means vessels have grown around the implant.

C[C@]12CC[C@@H]3c4ccc(O)cc4CC[C@H]3[C@@H]1CC[C@@H]2O [17-β-estradiol]
effect on relaxin VEGF stimulation compared to relaxin alone ([1]; 1 μM, simultaneously with relaxin or 48 hours pretreatment): Neither treatment protocol resulted in a difference in VEGF stimulation

O=S(=O)(NCCNC/C=C/c1ccc(Br)cc1)c1cccc2cnccc12 [H-89]
inhibition of relaxin-induced VEGF stimulation [1]: failed to completely inhibit VEGF stimulation

CC(C)Cn1c(=O)n(C)c(=O)c2[nH]cnc21 [IBMX, isobutylmethylxanthing]
Net VEGF Expr ([1]; Exp 1, 50 × 10^−6M, 24 h, net of placebo-treated control, mean ± SEM): 154 ± 46 pg/mL
Net VEGF Expr ([1]; Exp 2, 50 × 10^−6M, 8 h, net of placebo, mean ± SEM): 209 ± 20 pg/mL

CCCCCCOC(=O)[C@]1(O)C[C@@H]2O[C@@]1(C)n1c3ccccc3c3c4c(c5c6ccccc6n2c5c31)C(=O)NC4 [KT5720]
inhibition of relaxin-induced VEGF stimulation [1]: failed to completely inhibit VEGF stimulation

CCCCCCCCCCCCCC(=O)O[C@@H]1[C@@H](C)[C@@]2(O)[C@@H](C=C(CO)C[C@]3(O)C(=O)C(C)=C[C@@H]23)[C@@H]2C(C)(C)[C@]12OC(C)=O [PMA, reference compound]
cAMP levels ([2]; 1 ng/ml, data not shown): does not increase cAMP levels
Net VEGF Expr ([1]; Exp 5, 1 ng/ml, 8 h, net of placebo, mean ± SEM): 342 ± 18 pg/mL

Nc1ncnc2c1ncn2C1CCCO1 (stereo not shown) [SQ22536]
inhibition of relaxin-induced VEGF stimulation [1]: failed to completely inhibit VEGF stimulation

C[C@@H]1C[C@@H]([C@H](O)CC2CC(=O)NC(=O)C2)C(=O)[C@@H](C)C1 [cycloheximide, reference compound]
effect on relaxin-induced increase of VEGF transcripts ([3]; added with recombinant human relaxin (H2)): did not interfere with or amplify this increase

CCCC(=O)Nc1ncnc2c1ncn2[C@@H]1O[C@@H]2COP(=O)(O)O[C@H]2[C@H]1OC(=O)CCC [dbcAMP, Dibutyryl cAMP]
Net VEGF Expr ([1]; Exp 3, 10^−4M, 8 h, net of placebo, mean ± SEM): 488 ± 27 pg/mL
Net VEGF Expr ([1]; Exp 3, 10^−5M, 8 h, net of placebo, mean ± SEM): 142 ± 26 pg/mL
Net VEGF Expr ([1]; Exp 3, 10^−6M, 8 h, net of placebo): -0- pg/ml

CCCC(=O)Nc1nc2c(ncn2[C@@H]2O[C@@H]3COP(=O)(O)O[C@H]3[C@H]2OC(=O)CCC)c(=O)[nH]1 [dbcGMP, dibutyryl cGMP]
Net VEGF Expr ([1]; Exp 3, 10^−6M-10^−4M (each dose), 8 h, net of placebo): -0- pg/ml

Cholera toxin
Net VEGF Expr [1]: 1278 ± 106 pg/mL

IGF-I: member of the relaxin family (Promega)
VEGF induction [1]: Neither IGF-I and IGF-II induced VEGF production

IGF-II: member of the relaxin family (Promega)
VEGF induction [1]: Neither IGF-I and IGF-II induced VEGF production

Pertussis toxin
Net VEGF Expr ([1]; Exp 4, 1 μg/ml, 8 h, net of placebo, mean ± SEM): -0- pg/ml

insulin: member of the relaxin family, compared at 17 nM
VEGF expression relative to that induced by relaxin ([1]; 17 nM): roughly 30%

relaxin
morphological changes (adherence to plastic, clumping) [4]: no observable morphological changes
serum concentration ([5]; dosage about 6.0 μg/kg, ±0.3): about 1.8 ng/ml
serum concentration ([5]; dosage about 12.0 μg/kg, ±0.6): ~3.6 ng/mL
serum concentration ([5]; dosage about 50 μg/kg, ±1.6): ~11.8 ng/mL
cAMP levels ([2]; relaxin treatment, dose not given): causes an increase in cAMP
time at which increase of VEGF transcripts is detectable ([3]; 10 ng/ml): 30 min
increase of VEGF121, 165 and 189 PCR bands ([3]; 10 ng/ml, by 2 hours): roughly 2 fold
intensity of VEGF transcript bands on Southern blot ([3]; 100 ng/ml): intensity of all bands is increased
angiogenic activity (conclusion) ([6]; murine matrigel assay): angiogenic
mean score of gel plugs (1 positive, 0.5 indeterminate, 0 negative) ([6]; subcutaneous matrigel in mouse, after one week, standard error 0.1, control 0.3, P 0.02): 0.8
mean score of neo-capillary growth toward the disc (0-4 anatomic grading scale) ([7]; disc in rabbit corneal stroma micro pocket, after one week, n=8, standard error 0.5, placebo 0.6, P 0.08): 1.5
angiogenic activity (conclusion) ([7]; rabbit corneal assay): angiogenic
time course of VEGF in conditioned media ([1]; 1 ng/ml and 100 ng/ml): increased in the conditioned media in roughly linear fashion up to at least 72 hours
VEGF protein secretion (dose dependence) ([1]; 0.04-50 ng/ml, 8 hours): dose dependent manner
Net VEGF Expr ([1]; Exp 2, 10 ng/ml, 8 h, net of placebo, mean ± SEM): 161 ± 19 pg/mL
relaxin concentration at which VEGF protein secretion peaks ([1]; doses 0.04-50 ng/ml, 8 hours): 1 ng/mL
